{
  "source": "patent US11813304B2",
  "about": "“Compounds and methods for inhibiting phosphate transport” (Ardelyx, Inc., priority 2013, dated 2023)",
  "test_system": "HEK-293 cells",
  "assay": "Sodium-dependent 33P phosphate uptake in HEK-293 cells (mock, rat or human NaP2b transfected)",
  "type": "cell-based",
  "details": "5 μM EIPA; cells not pretreated to lower their intracellular pH; 23 min at room temperature",
  "procedure": "Experiments were performed to test the relationship between alterations in intracellular pH and the uptake of phosphate ions (Pi) in human embryonic kidney cells (HEK-293 cells).\nHEK-293 cells were seeded into 96-well plates at 25,000 cells/well and cultured overnight. Cells were then transfected with either rat or human NaP2b cDNA, or were mock transfected (no DNA) using Lipofectamine 2000 (Invitrogen). Cells were allowed to approach confluence during a second overnight incubation.\nAn ammonium pulse procedure was used to reduce the intracellular pH from ˜7.4 to ˜6.8. Medium was aspirated from the wells, cells were washed twice with NaCl-HEPES buffer (100 mM NaCl, 50 mM HEPES, 10 mM glucose, 5 mM KCl, 2 mM CaCl2, 1 mM MgCl2, pH 7.4), then incubated for 30 min at room temperature with NH4Cl-HEPES buffer (20 mM NH4Cl, 80 mM NaCl, 50 mM HEPES, 5 mM KCl, 2 mM CaCl2, 1 mM MgCl2, pH 7.4) containing 5 μM BCECF-AM. […] The reduction in intracellular pH to approximately pH 6.8 was verified by monitoring the pH sensitive changes in BCECF fluorescence (λex 505 nm, λem 538 nm) normalized to the pH insensitive BCECF fluorescence (λex 439 nm, λem 538 nm). […]\nUptake of ^33P was measured in the presence and absence of 5 μM EIPA, a specific inhibitor of NHE1. […] Cells were lysed by addition of 20 μL 0.1% Tween 80 followed by 100 μL scintillation fluid, and counted using a TopCount (Perkin Elmer).",
  "data": [
    {"smiles": "CCN(c1nc(N)c(C(=O)NC(=N)N)nc1Cl)C(C)C", "note": "[EIPA]", "values": [
      {"measurement": "Pi uptake (33P)", "result": "small yet significant decrease"}
    ]}
  ]
}
